Earlier results on 1 molecule are cited in PMC10200032 (Pharmacological Reports, 2023).

In brackets after ≈: the same amount, converted by molar mass.

For the data set, the system named is CVB4. Conditions: reference drug in earlier benzoquinazoline studies.

Turning to `NC(=O)c1ncn([C@@H]2O[C@H](CO)[C@@H](O)[C@H]2O)n1` [ribavirin], the “EC50 against CVB4” value was 29 µg/mL (≈ 119 µM).
